Assay results taken from patent publication US20060078540A1, “Dendritic cell nodes” (priority 2003, published 2006).

Test system: bone marrow-derived dendritic cells
Test: Migration filter chemotaxis assay (chemotaxis index)
Type: cell-based
Description: The formyl peptide fMLP (formyl-Met-Leu-Phe) chemoattractant has been studied in addition to the protein chemokine MIP-3α. The formyl peptide is a bacterial byproduct that attracts DC's to sites of infection. It has been reported in the literature to be attractive for iDC's in mice and humans. […] For these experiments, DC's were placed on the top of a migration filter containing 5-μm pores with a reservoir of fMLP (or MIP-3α) at the indicated concentration on the other side. After 90 minutes, the number of cells migrating in response to the chemoattractants was counted and compared to controls. In FIG. 18, CI is the chemotaxis index, defined as (number of migrated cells in chemokine)/(number of migrated cells in control without chemokine).
The literature reports CI up to ≈5 max for bone-marrow-derived dendritic cells (BMDC's), but this experiment was carried out on late-stage DC cultures (DC's are starting to mature on Day 7) and the culture was not purified, thus a significant contamination with neutrophils is likely present; thus the real CI is possibly higher.

Substance: MIP-3α: protein chemokine
- concentration giving maximal migration (previous experiments, in line with literature reports): 1 µg/mL

Substance: formyl-Met-Leu-Phe [fMLP]
- maximal potency of attraction of dendritic cells (5-μm pore migration filter, 90 minutes, Day 7 unpurified cultures, high concentrations of fMLP): comparable to MIP-3α
